Experimental data: ChEMBL document CHEMBL4393707, “Synthesis and evaluation of new quinazolin-4(3H)-one derivatives as potent antibacterial agents against multidrug resistant Staphylococcus aureus and Mycobacterium tuberculosis” (Eur J Med Chem, 2019)
≈ marks a conversion by molar mass, not a printed value.

Tests used:
Format in all cases: functional
[1] = test system: Pseudomonas aeruginosa; assay: Antibacterial activity against Pseudomonas aeruginosa ATCC 27853 incubated for 16 to 18 hrs by broth microdilution assay
[2] = test system: Klebsiella pneumoniae; assay: Antibacterial activity against Klebsiella pneumoniae ATCC BAA-1705 incubated for 16 to 18 hrs by broth microdilution assay
[3] = test system: Mycobacterium tuberculosis; assay: Antitubercular activity against Mycobacterium tuberculosis H37Rv after 7 days by resazurin dye based assay; details: 168 h
[4] = test system: Acinetobacter baumannii; assay: Antibacterial activity against Acinetobacter baumannii BAA1605 incubated for 16 to 18 hrs by broth microdilution assay
[5] = test system: Staphylococcus aureus; assay: Antibacterial activity against Staphylococcus aureus ATCC 29213 incubated for 16 to 18 hrs by broth microdilution assay
[6] = test system: Escherichia coli; assay: Antibacterial activity against Escherichia coli ATCC 25922 incubated for 16 to 18 hrs by broth microdilution assay

## N#Cc1ccc(/C=C/c2nc3ncccc3c(=O)n2-c2ccc(C#N)cc2)cc1
[1]
  MIC: > 64 mg/L
[2]
  MIC: > 64 mg/L
[3]
  MIC: > 64 mg/L
[4]
  MIC: > 64 mg/L
[5]
  MIC: 64 mg/L (≈ 170 µM)
[6]
  MIC: > 64 mg/L

## N#Cc1ccc(/C=C/c2nc3ccccc3c(=O)n2-c2ccc(O)cc2C(=O)O)cc1
[1]
  MIC: > 64 mg/L
[2]
  MIC: > 64 mg/L
[3]
  MIC: > 64 mg/L
[4]
  MIC: > 64 mg/L
[5]
  MIC: > 64 mg/L
[6]
  MIC: > 64 mg/L

## Cc1nc2ccc(OCc3cn(Cc4ccc(Br)cc4)nn3)cc2c(=O)n1-c1ccccc1
[1]
  MIC: > 64 mg/L
[2]
  MIC: > 64 mg/L
[3]
  MIC: > 64 mg/L
[4]
  MIC: > 64 mg/L
[5]
  MIC: 64 mg/L (≈ 127 µM)
[6]
  MIC: > 64 mg/L

## COc1cc(-n2c(/C=C/c3ccc(C#N)cc3)nc3ncccc3c2=O)cc(OC)c1OC
[1]
  MIC: > 64 mg/L
[2]
  MIC: > 64 mg/L
[3]
  MIC: 64 mg/L (≈ 145 µM)
[4]
  MIC: > 64 mg/L
[5]
  MIC: 64 mg/L (≈ 145 µM)
[6]
  MIC: > 64 mg/L

## N#Cc1ccc(/C=C/c2nc3ccccc3c(=O)n2Nc2ccc(C(F)(F)F)cc2)cc1
[1]
  MIC: > 64 mg/L
[2]
  MIC: > 64 mg/L
[3]
  MIC: > 64 mg/L
[4]
  MIC: > 64 mg/L
[5]
  MIC: > 64 mg/L
[6]
  MIC: > 64 mg/L

## Cc1nc2cc(NCc3cn(-c4ccc(F)c(Cl)c4)nn3)ccc2c(=O)n1-c1ccccc1
[1]
  MIC: > 64 mg/L
[2]
  MIC: > 64 mg/L
[3]
  MIC: > 64 mg/L
[4]
  MIC: > 64 mg/L
[5]
  MIC: > 64 mg/L
[6]
  MIC: > 64 mg/L

## Cc1cccc(-n2c(/C=C/c3ccc(C#N)cc3)nc3ncccc3c2=O)c1C
[1]
  MIC: > 64 mg/L
[2]
  MIC: > 64 mg/L
[3]
  MIC: > 64 mg/L
[4]
  MIC: > 64 mg/L
[5]
  MIC: > 64 mg/L
[6]
  MIC: > 64 mg/L

## Cc1ccc(C)c(-n2c(/C=C/c3ccc(C#N)cc3)nc3ncccc3c2=O)c1
[1]
  MIC: > 64 mg/L
[2]
  MIC: > 64 mg/L
[3]
  MIC: > 64 mg/L
[4]
  MIC: > 64 mg/L
[5]
  MIC: > 64 mg/L
[6]
  MIC: > 64 mg/L

## Cc1nc2cc(-n3cc(-c4ccc(Br)cc4)nn3)ccc2c(=O)n1-c1ccccc1
[1]
  MIC: > 64 mg/L
[2]
  MIC: > 64 mg/L
[3]
  MIC: 64 mg/L (≈ 140 µM)
[4]
  MIC: > 64 mg/L
[5]
  MIC: 64 mg/L (≈ 140 µM)
[6]
  MIC: > 64 mg/L

## C#CCOc1ccc2nc(/C=C/c3ccc(C#N)cc3)n(Cc3ccccc3)c(=O)c2c1
[1]
  MIC: > 64 mg/L
[2]
  MIC: > 64 mg/L
[3]
  MIC: > 64 mg/L
[4]
  MIC: > 64 mg/L
[5]
  MIC: > 64 mg/L
[6]
  MIC: > 64 mg/L

## C#CCNc1ccc2c(=O)n(-c3ccccc3)c(/C=C/c3ccc(C#N)cc3)nc2c1
[1]
  MIC: > 64 mg/L
[2]
  MIC: > 64 mg/L
[3]
  MIC: > 64 mg/L
[4]
  MIC: > 64 mg/L
[5]
  MIC: > 64 mg/L
[6]
  MIC: > 64 mg/L

## CC(C)(C)c1ccc(-n2c(/C=C/c3ccc(C#N)cc3)nc3ccccc3c2=O)cc1
[1]
  MIC: > 64 mg/L
[2]
  MIC: > 64 mg/L
[3]
  MIC: > 64 mg/L
[4]
  MIC: > 64 mg/L
[5]
  MIC: > 64 mg/L
[6]
  MIC: > 64 mg/L

## Cc1cc(C)cc(OCc2cn(-c3ccc4c(=O)n(-c5cccc(Cl)c5)c(C)nc4c3)nn2)c1
[1]
  MIC: > 64 mg/L
[2]
  MIC: > 64 mg/L
[3]
  MIC: > 64 mg/L
[4]
  MIC: > 64 mg/L
[5]
  MIC: > 64 mg/L
[6]
  MIC: > 64 mg/L

## Cc1nc2cc(-n3cc(-c4ccccc4)nn3)ccc2c(=O)n1-c1ccccc1
[1]
  MIC: > 64 mg/L
[2]
  MIC: > 64 mg/L
[3]
  MIC: > 64 mg/L
[4]
  MIC: > 64 mg/L
[5]
  MIC: > 64 mg/L
[6]
  MIC: > 64 mg/L

## N#Cc1ccc(/C=C/c2nc3ccccc3c(=O)n2-c2cccc3ccccc23)cc1
[1]
  MIC: > 64 mg/L
[2]
  MIC: > 64 mg/L
[3]
  MIC: > 64 mg/L
[4]
  MIC: > 64 mg/L
[5]
  MIC: > 64 mg/L
[6]
  MIC: > 64 mg/L

## COc1cc(-n2cc(COc3ccc4nc(C)n(-c5ccccc5)c(=O)c4c3)nn2)cc(OC)c1OC
[1]
  MIC: > 64 mg/L
[2]
  MIC: > 64 mg/L
[3]
  MIC: > 64 mg/L
[4]
  MIC: > 64 mg/L
[5]
  MIC: > 64 mg/L
[6]
  MIC: > 64 mg/L

## N#Cc1ccc(/C=C/c2nc3cc(-n4cc(-c5ccccc5)nn4)ccc3c(=O)n2-c2ccccc2)cc1
[1]
  MIC: > 64 mg/L
[2]
  MIC: > 64 mg/L
[3]
  MIC: > 64 mg/L
[4]
  MIC: > 64 mg/L
[5]
  MIC: > 64 mg/L
[6]
  MIC: > 64 mg/L
